These results are taken from the METLIN SMRT retention time set (Domingo-Almenara et al. 2019).

The nature of the data set: gradient 5% acetonitrile 3 min, to 50% in 2 min, to 85% in 15 min, held 3 min, 100 µL/min. As to conditions: column: Zorbax Extend-C18 2.1 x 50 mm; eluents: water / acetonitrile, 0.1% formic acid. The procedure, abridged:
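Retention times come from adduct peaks that were picked computationally and then checked by hand. The standards, pure and pooled in mixtures of ~100 molecules, were run on a Zorbax Extend-C18 column (2.1 × 50 mm, 1.8 μm) at 100 μL/min with water and acetonitrile, each with 0.1% formic acid. Detection was by quadrupole time-of-flight mass spectrometry in positive and negative ionization mode, with a dead volume of 40 μL and a dwell volume of 900 μL.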
Compound `O=C(Nc1ccc2ccccc2c1)c1cccc(F)c1` came in with an RP-LC retention time of 1060 s.
Then `O=c1c2nnc(SCc3ccc(F)cc3)n2ccn1-c1ccc(F)cc1`, with 812 s; and `CCCCOc1ccc(C(=O)N2CCOC(c3ccccc3)C2)cc1` (stereo unspecified), with 1060 s.
Regarding `CCCn1cc(CCNC(=O)c2ccc(C)c(F)c2)c2cccnc21`, the RP-LC retention time was determined as 815 s.
Next, `CCc1noc([C@@H]2CC(F)(F)CN2C(=O)Cn2cc(C)cn2)n1`: 718 s; `Cc1cc(C)cc(C(=O)N2CCCC(C(=O)NCCN3CCOCC3)C2)c1` (stereo unspecified): 619 s; `Cc1ccc(NC(=O)Cn2nc3nc(N4CCSCC4)ccn3c2=O)cc1C`: 754 s.
For `CCC(C)NC(=O)C1CCN(S(=O)(=O)c2cc(C(=O)N3CCCC3)n(C)c2)CC1` (stereo unspecified), the RP-LC retention time amounted to 660 s.
Next, `CCc1nnc(NC(=O)CN2C(=O)C3CCCCN3c3ccc(C(=O)N(C)C)cc32)s1` (stereo unspecified): 700 s; `Cn1nc(C(=O)N2C[C@@H]3C[C@H](NC(=O)c4cccs4)[C@H]2C3)c2ccccc21`: 778 s; `O=C(NCc1ccc(F)cc1Cl)C1CCN(c2ncnc3c2oc2ccccc23)CC1`: 790 s.
In the case of `CCn1cc(-c2nc(C(=O)NCc3ccccc3C)cs2)c2cccnc21`, the RP-LC retention time amounted to 1060 s.
Next, `CCCn1c(=O)sc2cc(S(=O)(=O)N3CCC(C(=O)Nc4ccc(C)c(C)c4)CC3)ccc21`: 1030 s; `Cn1nnc2cc(-c3noc(C4CCCO4)n3)ccc21` (stereo unspecified): 730 s; `O=C(c1nnn2c1COC(c1ccccc1)C2)N1CCN(C(=O)C2(c3ccccc3)CC2)CC1` (stereo unspecified): 850 s.
As for `Cn1c(=O)n(Cc2ccccc2)c(=O)c2c1nc(N1CCNCC1)n2Cc1ccccc1`, the RP-LC retention time came out at 672 s.
As for `COc1ccc(C(=O)Nc2nnc(SCc3nnc(-c4ccccc4)o3)s2)cc1`, the RP-LC retention time came to 899 s.
With `CN(C)c1cc(-n2cnc(C(=O)NCc3cccc(Cl)c3)c2)ncn1`, the RP-LC retention time came out at 793 s.
Turning to `N#Cc1ccccc1-c1cc(-c2ccccn2)cn(-c2ccccc2)c1=O`, the RP-LC retention time stood at 941 s.
The compound `CC1CC(=O)N(CC(=O)Nc2ccc3c(c2)OCO3)c2ccccc2S1` (stereo unspecified) gave an RP-LC retention time of 865 s.
Next, `CN(Cc1ccccc1)C(=O)C1CC(=O)N(CCc2c[nH]c3ccc(Cl)cc23)C1` (stereo unspecified): 863 s.
Then `COCCNC(=O)c1nccnc1NC(=O)c1ccc(C)cc1`, with 759 s; and `Cc1nn(-c2ccc(C(=O)NCc3ccco3)cc2)c2c1C(=O)CC(C)(C)C2`, with 756 s; and `CN(CCNC(=O)c1sc2ncccc2c1-n1cccc1)Cc1ccccc1`, with 666 s.
Next, `CN(CC1(C)CCOCC1)C(=O)c1c(F)cccc1Cl`: 813 s; `CCCCn1cnc2c(-c3ccccc3)cn(CC(=O)NC(C)CC)c2c1=O` (stereo unspecified): 985 s; `CCC(=O)N(C)c1nc2ccccc2n(CC(=O)Nc2c(C)cc(C)cc2C)c1=O`: 822 s.
`C(=N/NC1=NCCN1)/c1c2ccccc2c(/C=N\NC2=NCCN2)c2ccccc12` yielded an RP-LC retention time of 590 s.
`Cc1[nH]c(C)c(S(=O)(=O)N2CCC(C(=O)Nc3cc(F)ccc3F)CC2)c1C(=O)N1CCCC1` had an RP-LC retention time of 644 s.
For the compound `O=C(CCn1c(N2CCCCC2)nc2ccccc2c1=O)N1CCN(c2ccccn2)CC1`, the RP-LC retention time came to 630 s.
Next, `Cc1nnc(-c2ccc3ccn(CC(=O)NCc4cccs4)c3c2)o1`: 729 s; `O=C1NC(c2cccc3ccccc23)Nc2ccccc21` (stereo unspecified): 776 s.
Next, `Cc1noc2ncnc(N3CCC(C(=O)N4CCCc5ccccc54)CC3)c12`: 865 s; `CCc1ccc(NC(=O)C2CC(=O)N(CCc3c[nH]c4ccc(OC)cc34)C2)cc1` (stereo unspecified): 831 s.
Then `COc1ccc(CC(=O)Nc2nc3ccc(S(=O)(=O)NC(C)C)cc3s2)cc1OC`, with 730 s; and `COc1cccc(Cn2nnc(C(=O)O)c2C)c1`, with 666 s; and `CCCCNC(=O)CC1CCN(C(=O)c2[nH]c(C)c(C(=O)OC)c2C)CC1`, with 689 s.
Regarding `Cc1cc(NC(=O)C2CCN(S(=O)(=O)c3cn(C)cn3)CC2)ccc1Br`, the RP-LC retention time was 802 s.
Then `Cc1nn(CC(=O)N2CCCC2)c(=O)c2nc(-c3ccccc3)sc12`, with 756 s; and `Cc1ccc(NC(=O)Nc2cccc(-c3ccc(N4CCOCC4)nn3)c2)c(C)c1`, with 732 s; and `O=C(C1CCCN(c2ccc(-c3ccccc3)nn2)C1)N1CCN(c2ccccc2F)CC1` (stereo unspecified), with 788 s.
Then `O=C(CC1CCCCC1)NC1CCN(c2cc(-c3cccnc3)[nH]n2)CC1`, with 633 s; and `CCCC(=O)N(C)CC1CCOCC1`, with 630 s.
Turning to `C=CCNC(=O)C(=O)Nc1ccc2c(c1)N(C(=O)C(C)C)CCC2`, the RP-LC retention time amounted to 746 s.
Then `O=C(CSc1nc(=O)[nH]c2c1CCCC2)N1CCCc2ccccc21`, with 729 s; and `CCn1cc(C(=O)Nc2cc(OC)cc(OC)c2)c(S(=O)(=O)N2CCSCC2)n1`, with 992 s; and `CSc1ccc(NC(=O)Nc2ccccc2C(N)=O)cc1`, with 846 s.
As for `COc1ccc(NC(=O)C2CCN(c3nnc(-c4ccc(OC)cc4)o3)CC2)cc1`, the RP-LC retention time is 824 s.
Then `CCc1nnc(NC(=O)CSc2nnc(Cn3c(=O)sc4ccccc43)n2C)s1`, with 658 s; and `CCC(=O)N1CCc2cc(N3CC(C(=O)NCC(C)C)CC3=O)ccc21` (stereo unspecified), with 687 s.
Next, `CCn1c(N2CCN(C(=O)Nc3ccccc3OC)CC2)nc2ccccc21`: 655 s; `COc1ccc(CCNC(=O)C2=C3CCCN3c3ccc(F)cc3S2(=O)=O)cc1OC`: 790 s; `O=C(CCc1nc2ccccc2s1)N1C[C@H]2CNC(=O)[C@]23CCCC[C@@H]13`: 705 s.
For `O=C(C1CCc2nc(N3CCCC3)ncc2C1)N1CCN(Cc2ccc3c(c2)OCO3)CC1` (stereo unspecified), the RP-LC retention time is 566 s.
The compound `Cc1cccc(Cn2nc(-c3nc(C(C)(C)C)no3)ccc2=O)c1` had an RP-LC retention time of 1110 s.
Regarding `CC(Oc1ccc(-c2cnc3ccccc3n2)cc1)C(=O)NCCN(C)C` (stereo unspecified), the RP-LC retention time came out at 634 s.
Next, `Cc1nc(NC(=O)Cn2nc3c(cc2=O)CCCCC3)sc1C`: 786 s.
Then `O=C(c1ccc(F)c(Cl)c1)N1CCC(n2c(-c3ccoc3)nc3cccnc32)C1` (stereo unspecified), with 735 s; and `Cc1ccc(NC(=O)Cn2c(=O)n(-c3ccc(F)cc3)c(=O)c3c2cc(C)n3C)cc1`, with 800 s; and `Cn1nccc1C(=O)N1CCCC1c1ccc(Cl)cc1` (stereo unspecified), with 817 s.
Next, `CCOc1ccccc1N1CCN(S(=O)(=O)c2nn(C)cc2C(=O)NC2CCCCC2)CC1`: 1110 s.
For `Cc1nc2c(c(N(C)CCc3c(C)nn(C)c3C)n1)CCC2`, the RP-LC retention time worked out at 588 s.
Next, `CC1CCCN(c2ncc(C(=O)NCc3ccccc3)c(N)n2)C1` (stereo unspecified): 597 s; `CC1CCc2nc3ncn(CC(=O)Nc4ccc(Cl)cc4F)c(=O)c3cc2C1` (stereo unspecified): 858 s; `O=C(N1CCN(S(=O)(=O)Cc2ccccc2)CC1)N1C[C@H]2C[C@H](C1)[C@H]1CCCC(=O)N1C2`: 709 s.
Then `COc1ccc(NC(=O)Nc2ccc(C)n(CC(=O)O)c2=O)cc1`, with 668 s; and `O=C(NCc1ccccc1F)C1CCCN(c2nn3c(=O)c4c(nc3s2)CCCC4)C1` (stereo unspecified), with 762 s.
In turn, `Cc1ccc(N2CC(c3nc(-c4ccc5c(c4)ncn5C)no3)CC2=O)cc1C` (stereo unspecified) returned an RP-LC retention time of 702 s.
Then `Cc1noc(C)c1CCC(=O)N1CCN(Cc2csc(-c3ccccc3)n2)CC1`, with 576 s; and `CCCCOc1ccc(C(=O)Nc2cc(C)no2)cc1`, with 908 s; and `O=c1c(NCCCc2ccccc2)nc2ccncc2n1Cc1ccccc1`, with 778 s.
Next, `Cc1ncc2c(n1)CCCN(CC(=O)NC1CC1)C2=O`: 567 s; `CCc1nc2cc3c(cc2n1CC(=O)Nc1ccc2c(c1)OCCO2)OCCO3`: 618 s.
Then `Cc1nc(N)n(CC(=O)N2CCc3ccccc32)c(=O)c1C`, with 616 s; and `COc1cccc(C2=Nc3cccnc3N(CC(=O)NCc3ccco3)C(=O)C2)c1`, with 809 s; and `O=C(O)CCC(=O)Nc1ccccc1Cl`, with 616 s.
Regarding `CCOC(=O)c1nc(Nc2ccc(C(C)C)cc2)c2ccccc2n1`, the RP-LC retention time came to 1020 s.
Next, `COCCCNC(=O)c1ccc2c(c1)nc1n2CCN(C2CCCCC2)C1=O`: 1240 s; `CCCN1C(=O)c2cc(S(=O)(=O)Nc3cccc(Cl)c3)ccc2Oc2cccnc21`: 1120 s; `Cc1ccc(-n2cc(C(=O)O)nn2)c(F)c1`: 705 s.
Consider `CCS(=O)(=O)c1nc2ccc(NS(=O)(=O)c3cc(C)c(C)cc3C)cc2s1`, for which the RP-LC retention time amounted to 972 s.
